Reference: ChEMBL document CHEMBL1156097, “Design, synthesis and bioevaluation of novel maleamic amino acid ester conjugates of 3,5-bisarylmethylene-4-piperidones as cytostatic agents” (Bioorg Med Chem Lett, 2009)
Activity calls are given as the source filed them. The rule behind the calls is not given here.

How the values were obtained:
[1] = molecular target: DNA topoisomerase 2-alpha (Homo sapiens) (UniProt P11388); assay: Inhibition of human DNA topoisomerase 2alpha-mediated relaxation of supercoiled pRYG DNA at 25 uM after 30 mins by […]
Chain of DNA topoisomerase 2-alpha (Homo sapiens) (P11388 whole entry): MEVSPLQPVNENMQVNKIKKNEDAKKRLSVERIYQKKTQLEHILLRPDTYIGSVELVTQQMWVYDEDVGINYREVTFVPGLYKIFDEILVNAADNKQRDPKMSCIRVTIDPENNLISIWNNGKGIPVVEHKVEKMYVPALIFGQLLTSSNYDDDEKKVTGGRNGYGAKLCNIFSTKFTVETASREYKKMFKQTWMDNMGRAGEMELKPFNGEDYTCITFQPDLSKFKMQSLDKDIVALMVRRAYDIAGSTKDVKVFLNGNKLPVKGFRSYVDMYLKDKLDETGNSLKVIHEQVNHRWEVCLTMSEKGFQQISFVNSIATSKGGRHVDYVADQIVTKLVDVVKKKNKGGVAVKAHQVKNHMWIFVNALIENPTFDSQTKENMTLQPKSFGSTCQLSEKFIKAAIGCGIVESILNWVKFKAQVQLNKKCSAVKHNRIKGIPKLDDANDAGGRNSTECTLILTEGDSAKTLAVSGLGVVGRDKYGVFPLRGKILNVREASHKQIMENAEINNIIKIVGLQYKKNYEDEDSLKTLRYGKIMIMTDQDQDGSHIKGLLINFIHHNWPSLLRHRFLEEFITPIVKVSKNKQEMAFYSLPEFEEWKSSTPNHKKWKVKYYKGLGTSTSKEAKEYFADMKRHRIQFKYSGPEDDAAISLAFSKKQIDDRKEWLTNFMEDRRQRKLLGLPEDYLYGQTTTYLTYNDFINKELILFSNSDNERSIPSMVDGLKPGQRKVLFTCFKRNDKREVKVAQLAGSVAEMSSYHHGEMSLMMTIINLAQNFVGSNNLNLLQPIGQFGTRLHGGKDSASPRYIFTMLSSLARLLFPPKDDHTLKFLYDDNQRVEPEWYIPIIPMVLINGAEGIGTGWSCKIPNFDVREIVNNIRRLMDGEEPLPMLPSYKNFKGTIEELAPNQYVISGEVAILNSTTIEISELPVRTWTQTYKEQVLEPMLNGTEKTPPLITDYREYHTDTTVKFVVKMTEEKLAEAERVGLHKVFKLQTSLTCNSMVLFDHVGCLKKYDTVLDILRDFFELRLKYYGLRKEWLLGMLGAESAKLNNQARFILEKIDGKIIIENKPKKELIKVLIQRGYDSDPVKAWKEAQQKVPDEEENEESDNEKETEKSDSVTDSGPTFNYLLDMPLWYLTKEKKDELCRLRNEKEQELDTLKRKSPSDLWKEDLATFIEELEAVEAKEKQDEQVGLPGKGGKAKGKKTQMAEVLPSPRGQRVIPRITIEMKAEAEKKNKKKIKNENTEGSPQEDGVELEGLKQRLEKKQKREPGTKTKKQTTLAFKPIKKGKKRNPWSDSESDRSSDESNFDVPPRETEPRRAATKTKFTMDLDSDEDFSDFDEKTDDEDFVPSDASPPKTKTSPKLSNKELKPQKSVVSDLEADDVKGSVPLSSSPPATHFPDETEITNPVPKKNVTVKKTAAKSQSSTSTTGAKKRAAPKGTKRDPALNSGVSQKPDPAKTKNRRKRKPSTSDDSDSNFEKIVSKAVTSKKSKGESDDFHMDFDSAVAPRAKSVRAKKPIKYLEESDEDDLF

[2] = molecular target: DNA topoisomerase 2-alpha (Homo sapiens) (UniProt P11388); assay: Inhibition of human DNA topoisomerase 2alpha-mediated relaxation of supercoiled pRYG DNA at 50 uM after 30 mins by […]
[3] = molecular target: DNA topoisomerase 2-alpha (Homo sapiens) (UniProt P11388); assay: Inhibition of human DNA topoisomerase 2alpha-mediated relaxation of supercoiled pRYG DNA at 10 uM after 30 mins by […]
[4] = Cytotoxicity against human Molt4/C8 cells; type: functional, cell-based; conditions: MOLT-4
[5] = system: CCRF-CEM; assay: Cytotoxicity against human CEM cells; type: functional, cell-based
[6] = system: L1210; assay: Cytotoxicity against mouse L1210 cells; type: functional, cell-based
[7] = molecular target: DNA topoisomerase 2-alpha (Homo sapiens) (UniProt P11388); assay: Inhibition of human DNA topoisomerase 2alpha-mediated relaxation of supercoiled pRYG DNA at 100 uM after 30 mins by agarose gel electrophoresis
[8] = system: Mus musculus; assay: Neurotoxicity in mouse at 100 mg/kg, ip after 0.5 hrs; type: toxicity, organism-based; parameters: dose 100 mg/kg, route intraperitoneal; conditions: in vivo
[9] = system: Mus musculus; assay: Neurotoxicity in mouse at 300 mg/kg, ip after 0.5 hrs; type: toxicity, organism-based; parameters: dose 300 mg/kg, route intraperitoneal; conditions: in vivo
[10] = system: Mus musculus; assay: Neurotoxicity in mouse at 100 mg/kg, ip after 4 hrs; type: toxicity, organism-based; parameters: dose 100 mg/kg, route intraperitoneal; conditions: in vivo
[11] = system: Mus musculus; assay: Neurotoxicity in mouse at 30 mg/kg, ip after 4 hrs; type: toxicity, organism-based; parameters: dose 30 mg/kg, route intraperitoneal; conditions: in vivo
[12] = system: Mus musculus; assay: Neurotoxicity in mouse at 300 mg/kg, ip after 4 hrs; type: toxicity, organism-based; parameters: dose 300 mg/kg, route intraperitoneal; conditions: in vivo

Row | Activity [1] | Activity [2] | Activity [3] | Activity [7] | SMILES | IC50 [4] [nM] | IC50 [5] [nM] | IC50 [6] [nM] | Activity [8] | Activity [9] | Activity [10] | Activity [11] | Activity [12]
1 | Active | Active | inactive | Active | CCOC(=O)[C@@H](NC(=O)/C=C\C(=O)N1C/C(=C\c2ccc([N+](=O)[O-])cc2)C(=O)/C(=C/c2ccc([N+](=O)[O-])cc2)C1)C(C)C | 220 | 170 | 440 | – | – | – | – | –
2 | inactive | Active | inactive | Active | CCOC(=O)[C@H](C)NC(=O)/C=C\C(=O)N1C/C(=C\c2ccc([N+](=O)[O-])cc2)C(=O)/C(=C/c2ccc([N+](=O)[O-])cc2)C1 | 240 | 83 | 580 | – | – | – | – | –
3 | inactive | inactive | inactive | Active | CCOC(=O)[C@H](CC(C)C)NC(=O)/C=C\C(=O)N1C/C(=C\c2ccc([N+](=O)[O-])cc2)C(=O)/C(=C/c2ccc([N+](=O)[O-])cc2)C1 | 210 | 170 | 240 | Non-toxic | – | – | – | –
4 | Active | Active | Active | Active | CCOC(=O)CNC(=O)/C=C\C(=O)N1C/C(=C\c2ccc([N+](=O)[O-])cc2)C(=O)/C(=C/c2ccc([N+](=O)[O-])cc2)C1 | 230 | 110 | 840 | – | Non-toxic | Non-toxic | Non-toxic | Non-toxic

Continued, compound first:

Row | SMILES | Activity [1] | Activity [2] | Activity [3] | Activity [7] | IC50 [4] [nM] | IC50 [5] [nM] | IC50 [6] [nM] | Activity [8] | Activity [9] | Activity [10] | Activity [11] | Activity [12]
5 | C=CC(=O)N1C/C(=C\c2ccccc2)C(=O)/C(=C/c2ccccc2)C1 | – | – | – | – | 1420 | – | – | – | – | – | – | –
6 | CCOC(=O)CNC(=O)/C=C\C(=O)N1C/C(=C\c2ccccc2)C(=O)/C(=C/c2ccccc2)C1 | inactive | inactive | inactive | inactive | 1400 | 1300 | 6100 | – | – | – | – | –
7 | CCOC(=O)[C@H](Cc1ccc(O)cc1)NC(=O)/C=C\C(=O)N1C/C(=C\c2ccccc2)C(=O)/C(=C/c2ccccc2)C1 | inactive | inactive | inactive | Active | 570 | 350 | 4600 | – | – | – | – | –
8 | CCOC(=O)[C@H](CCSC)NC(=O)/C=C\C(=O)N1C/C(=C\c2ccc([N+](=O)[O-])cc2)C(=O)/C(=C/c2ccc([N+](=O)[O-])cc2)C1 | Active | Active | Active | Active | 250 | 190 | 580 | – | – | – | – | –
9 | CCOC(=O)[C@H](Cc1ccc(O)cc1)NC(=O)/C=C\C(=O)N1C/C(=C\c2ccc([N+](=O)[O-])cc2)C(=O)/C(=C/c2ccc([N+](=O)[O-])cc2)C1 | Active | Active | inactive | Active | 280 | 170 | 600 | – | – | – | – | –
10 | CCOC(=O)[C@H](CC(C)C)NC(=O)/C=C\C(=O)N1C/C(=C\c2ccccc2)C(=O)/C(=C/c2ccccc2)C1 | inactive | inactive | inactive | inactive | 1100 | 1200 | 4700 | – | – | – | – | –
11 | O=C1/C(=C/c2ccc([N+](=O)[O-])cc2)CNC/C1=C\c1ccc([N+](=O)[O-])cc1 | – | – | – | – | 8280 | – | 32100 | – | – | – | – | –
12 | CCOC(=O)[C@H](Cc1c[nH]c2ccccc12)NC(=O)/C=C\C(=O)N1C/C(=C\c2ccc([N+](=O)[O-])cc2)C(=O)/C(=C/c2ccc([N+](=O)[O-])cc2)C1 | Active | Active | Active | Active | 270 | 190 | 620 | – | – | – | – | –
13 | C=CC(=O)N1C/C(=C\c2ccc([N+](=O)[O-])cc2)C(=O)/C(=C/c2ccc([N+](=O)[O-])cc2)C1 | – | – | – | – | 150 | – | – | – | – | – | – | –
14 | CCOC(=O)[C@H](Cc1ccccc1)NC(=O)/C=C\C(=O)N1C/C(=C\c2ccc([N+](=O)[O-])cc2)C(=O)/C(=C/c2ccc([N+](=O)[O-])cc2)C1 | Active | Active | Active | Active | 240 | 130 | 200 | – | – | – | – | –
